In patent publication US20140155384A1, “COMPOUNDS AND METHODS OF TREATING DIABETES” (Medivation Technologies, Inc., priority 2011, published 2014):

Legend:
[1] = molecular target: T1, human recombinant adrenergic α2A receptor (Homo sapiens, UniProt P08913); test: Radioligand binding, adrenergic α2A receptor ([3H]MK-912); details: 0.1 μM compound; Sf9 cells; 1 nM [3H]MK-912; read-out: Percentage inhibition of ligand binding, Adrenergic α2A
T1 construct: expressed in transfected cells; host or cells: insect Sf9 cells
T1 sequence (P08913 1-465): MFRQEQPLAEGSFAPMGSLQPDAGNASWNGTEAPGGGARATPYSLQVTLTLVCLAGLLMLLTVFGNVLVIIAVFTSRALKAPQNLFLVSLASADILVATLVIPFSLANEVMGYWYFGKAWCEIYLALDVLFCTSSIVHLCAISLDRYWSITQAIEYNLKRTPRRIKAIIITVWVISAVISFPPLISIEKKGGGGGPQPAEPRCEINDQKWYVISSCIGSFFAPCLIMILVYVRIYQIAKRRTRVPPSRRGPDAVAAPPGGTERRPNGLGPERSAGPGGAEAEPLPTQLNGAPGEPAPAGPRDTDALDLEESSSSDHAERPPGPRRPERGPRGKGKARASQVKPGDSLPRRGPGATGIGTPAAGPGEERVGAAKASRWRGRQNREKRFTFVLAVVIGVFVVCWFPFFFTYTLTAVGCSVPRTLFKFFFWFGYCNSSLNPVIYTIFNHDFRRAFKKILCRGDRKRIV
In short: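 Percent inhibition of specific [3H]MK-912 (1 nM) binding measured by filtration counting, compounds tested at ≤1 μM in 1% DMSO. Receptor: human α2A from Sf9 cells; incubation 60 min, 25 °C, pH 7.4; 10 μM WB-4101 defined nonspecific binding.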

[2] = molecular target: T2, human recombinant adrenergic α1D receptor (Homo sapiens, UniProt P25100); test: Radioligand binding, adrenergic α1D receptor ([3H]Prazosin); details: 0.1 μM compound; HEK-293 cells; 0.6 nM [3H]Prazosin; read-out: Percentage inhibition of ligand binding, Adrenergic α1D
T2 construct: expressed in transfected cells; host or cells: HEK-293
T2 sequence (P25100 1-572): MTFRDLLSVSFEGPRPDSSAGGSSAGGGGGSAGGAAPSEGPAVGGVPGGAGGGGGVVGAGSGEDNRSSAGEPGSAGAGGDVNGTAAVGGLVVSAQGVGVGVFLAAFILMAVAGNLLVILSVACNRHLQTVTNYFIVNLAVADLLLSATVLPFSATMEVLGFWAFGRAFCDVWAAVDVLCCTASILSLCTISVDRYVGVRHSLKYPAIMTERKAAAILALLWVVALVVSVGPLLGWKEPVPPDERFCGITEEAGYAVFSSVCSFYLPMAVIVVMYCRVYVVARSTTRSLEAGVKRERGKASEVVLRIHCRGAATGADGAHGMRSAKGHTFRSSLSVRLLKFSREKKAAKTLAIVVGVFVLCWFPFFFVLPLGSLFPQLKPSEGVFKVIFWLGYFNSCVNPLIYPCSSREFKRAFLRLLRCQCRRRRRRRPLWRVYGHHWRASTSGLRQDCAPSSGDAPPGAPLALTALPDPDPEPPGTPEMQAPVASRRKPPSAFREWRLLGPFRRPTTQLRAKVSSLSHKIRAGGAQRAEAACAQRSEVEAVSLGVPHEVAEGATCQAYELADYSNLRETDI
Experimental: Compounds were incubated with 0.6 nM [3H]Prazosin for 60 min at 25° C. Non-specific binding was estimated in the presence of 10 μM phentolamine. Receptor proteins were filtered and washed, the filters were then counted to determine [3H]Prazosin specifically bound. Compounds were screened at 1 μM or lower, using 1% DMSO as vehicle. Biochemical assay results are presented as the percent inhibition of specific binding in Table 2.

[3] = molecular target: T3, rat adrenergic α1B receptor (Rattus norvegicus, UniProt P15823); test: Radioligand binding, adrenergic α1B receptor ([3H]Prazosin); details: 0.1 μM compound, Wistar rat liver, read-out: Percentage inhibition of ligand binding, Adrenergic α1B
T3 construct: rat adrenergic α1B receptor obtained from Wistar Rat liver; from tissue; host or cells: Wistar rat liver
T3 sequence (P15823 1-515): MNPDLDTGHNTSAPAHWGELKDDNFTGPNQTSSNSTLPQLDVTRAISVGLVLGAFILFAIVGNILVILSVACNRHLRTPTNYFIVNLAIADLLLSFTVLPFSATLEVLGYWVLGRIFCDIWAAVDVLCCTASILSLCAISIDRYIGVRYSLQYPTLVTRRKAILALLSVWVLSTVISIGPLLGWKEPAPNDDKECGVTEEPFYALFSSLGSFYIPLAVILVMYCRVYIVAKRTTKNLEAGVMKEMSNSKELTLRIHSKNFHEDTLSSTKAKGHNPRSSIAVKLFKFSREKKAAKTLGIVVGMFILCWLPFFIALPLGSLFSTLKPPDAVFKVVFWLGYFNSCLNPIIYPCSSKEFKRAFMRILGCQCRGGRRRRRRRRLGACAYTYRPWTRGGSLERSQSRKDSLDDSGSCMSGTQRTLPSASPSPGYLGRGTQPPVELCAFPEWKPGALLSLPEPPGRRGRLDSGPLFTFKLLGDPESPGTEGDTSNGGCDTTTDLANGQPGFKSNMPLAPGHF
In short: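 Wistar rat liver α1B receptor preparation incubated with 0.25 nM [3H]prazosin and compound for 60 min at 25° C in 50 mM Tris-HCl pH 7.4, 0.5 mM EDTA; nonspecific binding defined with 10 μM phentolamine.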

[4] = molecular target: T4, human recombinant adrenergic α2B receptor (Homo sapiens, UniProt P18089); test: Radioligand binding, adrenergic α2B receptor ([3H]Rauwolscine); details: 0.1 μM compound, CHO-K1 cells, read-out: Percentage inhibition of ligand binding, Adrenergic α2B
T4 construct: expressed in transfected cells; host or cells: CHO-K1
T4 sequence (P18089 1-450): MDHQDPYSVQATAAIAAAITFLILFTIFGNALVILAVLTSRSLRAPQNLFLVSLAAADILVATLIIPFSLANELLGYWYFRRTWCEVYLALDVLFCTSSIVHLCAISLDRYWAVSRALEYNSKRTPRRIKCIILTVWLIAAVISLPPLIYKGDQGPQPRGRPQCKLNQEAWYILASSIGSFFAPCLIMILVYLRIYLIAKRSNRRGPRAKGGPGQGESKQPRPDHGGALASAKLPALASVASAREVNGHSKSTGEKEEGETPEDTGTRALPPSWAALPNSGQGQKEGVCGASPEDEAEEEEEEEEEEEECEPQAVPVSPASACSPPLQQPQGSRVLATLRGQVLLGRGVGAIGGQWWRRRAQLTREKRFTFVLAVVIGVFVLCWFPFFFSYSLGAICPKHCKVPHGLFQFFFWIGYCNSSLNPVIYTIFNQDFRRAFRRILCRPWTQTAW
In short: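 Percent inhibition of specific [3H]Rauwolscine (2.5 nM) binding, compounds at ≤1 μM, 1% DMSO vehicle, 10 μM prazosin defining nonspecific. Receptor: human α2B expressed in CHO-K1 cells, 60 min incubation at 25 °C in Tris-HCl pH 7.4 buffer (MgCl2, EDTA, BSA); filtered, washed, counted.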

## Cc1ccc2c(c1)c1c(n2-c2cccc(-c3ccc(C)s3)c2)CCN(C)C1 [Compound No. 64, 2,8-dimethyl-5-(3-(5-methylthiophen-2-yl)phenyl)-2,3,4,5-tetrahydro-1H-pyrido[4,3-b]indole]
[1]
  inhibition at 0.1 µM: 25%
[2]
  inhibition at 0.1 µM: -1%
[3]
  inhibition at 0.1 µM: 10%
[4]
  inhibition at 0.1 µM: 1%

## Cc1ccc2c(c1)c1c(n2-c2cccc(-c3c(C)noc3C)c2)CCN(C)C1 [Compound No. 65, 4-(3-(2,8-dimethyl-3,4-dihydro-1H-pyrido[4,3-b]indol-5(2H)-yl)phenyl)-3,5-dimethylisoxazole]
[1]
  inhibition at 0.1 µM: 33%
[2]
  inhibition at 0.1 µM: 1%
[3]
  inhibition at 0.1 µM: 14%
[4]
  inhibition at 0.1 µM: 46%

## Cc1ccc2c(c1)c1c(n2-c2cccc(-c3ccnn3C)c2)CCN(C)C1 [Compound No. 66, 2,8-dimethyl-5-(3-(1-methyl-1H-pyrazol-5-yl)phenyl)-2,3,4,5-tetrahydro-1H-pyrido[4,3-b]indole]
[1]
  inhibition at 0.1 µM: 39%
[2]
  inhibition at 0.1 µM: 11%
[3]
  inhibition at 0.1 µM: 13%
[4]
  inhibition at 0.1 µM: 18%

## Cc1ccc2c(c1)c1c(n2-c2cccc(-c3cncc4ccccc34)c2)CCN(C)C1 [Compound No. 67, 5-(3-(isoquinolin-4-yl)phenyl)-2,8-dimethyl-2,3,4,5-tetrahydro-1H-pyrido[4,3-b]indole]
[1]
  inhibition at 0.1 µM: 39%
[2]
  inhibition at 0.1 µM: -1%
[3]
  inhibition at 0.1 µM: 2%
[4]
  inhibition at 0.1 µM: 13%

## Cc1ccc2c(c1)c1c(n2-c2cccc(-c3cccn3C)c2)CCN(C)C1 [Compound No. 69, 2,8-dimethyl-5-(3-(1-methyl-1H-pyrrol-2-yl)phenyl)-2,3,4,5-tetrahydro-1H-pyrido[4,3-b]indole]
[1]
  inhibition at 0.1 µM: 39%
[2]
  inhibition at 0.1 µM: 9%
[3]
  inhibition at 0.1 µM: 11%
[4]
  inhibition at 0.1 µM: 3%

## Cc1ccc2c(c1)c1c(n2-c2cccc(-c3cn[nH]c3)c2)CCN(C)C1 [Compound No. 70, 5-(3-(1H-pyrazol-4-yl)phenyl)-2,8-dimethyl-2,3,4,5-tetrahydro-1H-pyrido[4,3-b]indole]
[1]
  inhibition at 0.1 µM: 34%
[2]
  inhibition at 0.1 µM: 9%
[3]
  inhibition at 0.1 µM: 18%
[4]
  inhibition at 0.1 µM: 19%

## CNC(=O)c1ccc(-c2ccccc2-n2c3c(c4cc(C)ccc42)CN(C)CC3)cn1 [Compound No. 71, 5-(2-(2,8-dimethyl-3,4-dihydro-1H-pyrido[4,3-b]indol-5(2H)-yl)phenyl)-N-methylpicolinamide]
[1]
  inhibition at 0.1 µM: 11%
[2]
  inhibition at 0.1 µM: 87%
[3]
  inhibition at 0.1 µM: 66%
[4]
  inhibition at 0.1 µM: 89%

## CNC(=O)c1ccc(-c2ccccc2-n2c3c(c4cc(C)ccc42)CN(C)CC3)cc1 [Compound No. 72, 2′-(2,8-dimethyl-3,4-dihydro-1H-pyrido[4,3-b]indol-5(2H)-yl)-N-methylbiphenyl-4-carboxamide]
[1]
  inhibition at 0.1 µM: 3%
[2]
  inhibition at 0.1 µM: 56%
[3]
  inhibition at 0.1 µM: 28%
[4]
  inhibition at 0.1 µM: 17%

## CNC(=O)c1ccc(-c2cscc2-n2c3c(c4cc(C)ccc42)CN(C)CC3)cn1 [Compound No. 73]
[1]
  inhibition at 0.1 µM: 16%
[2]
  inhibition at 0.1 µM: 83%
[3]
  inhibition at 0.1 µM: 64%
[4]
  inhibition at 0.1 µM: 94%

## Cc1ccc2c(c1)c1c(n2-c2ccc3ccncc3c2)CCN(C)C1 [Compound No. 74, 5-(isoquinolin-7-yl)-2,8-dimethyl-2,3,4,5-tetrahydro-1H-pyrido[4,3-b]indole]
[1]
  inhibition at 0.1 µM: 38%
[2]
  inhibition at 0.1 µM: 18%
[3]
  inhibition at 0.1 µM: 41%
[4]
  inhibition at 0.1 µM: 70%

## CNC(=O)c1ccc(-c2cccc(-n3c4c(c5cc(C)ccc53)CN(C)CC4)c2)cn1 [Compound No. 75, 5-(3-(2,8-dimethyl-3,4-dihydro-1H-pyrido[4,3-b]indol-5(2H)-yl)phenyl)-N-methylpicolinamide]
[1]
  inhibition at 0.1 µM: 21%
[2]
  inhibition at 0.1 µM: 15%
[3]
  inhibition at 0.1 µM: 20%
[4]
  inhibition at 0.1 µM: 16%

## Cc1ccc2c(c1)c1c(n2-c2ccc3c(c2)CCN(C=O)C3)CCN(C)C1 [Compound No. 77, 6-(2,8-dimethyl-1,2,3,4-tetrahydro-pyrido[4,3-b]indol-5-yl)-3,4-dihydro-1H-isoquinoline-2-carbaldehyde]
[1]
  inhibition at 0.1 µM: 15%
[2]
  inhibition at 0.1 µM: 6%
[3]
  inhibition at 0.1 µM: 15%
[4]
  inhibition at 0.1 µM: 45%

## CNC(=O)c1cc(-n2c3c(c4cc(C)ccc42)CN(C)CC3)cs1 [Compound No. 78]
[1]
  inhibition at 0.1 µM: 63%
[2]
  inhibition at 0.1 µM: 21%
[3]
  inhibition at 0.1 µM: 8%
[4]
  inhibition at 0.1 µM: 86%

## Cc1ccc2c(c1)c1c(n2-c2ccccc2-c2ccc(O)nc2)CCN(C)C1 [Compound No. 80, 5-(2-(2,8-dimethyl-3,4-dihydro-1H-pyrido[4,3-b]indol-5(2H)-yl)phenyl)pyridin-2-ol]
[1]
  inhibition at 0.1 µM: 12%
[2]
  inhibition at 0.1 µM: 23%
[3]
  inhibition at 0.1 µM: 9%
[4]
  inhibition at 0.1 µM: 27%

## Cc1ccc2c(c1)c1c(n2-c2ccccc2-c2ccc(C)s2)CCN(C)C1 [Compound No. 81, 2,8-dimethyl-5-(2-(5-methylthiophen-2-yl)phenyl)-2,3,4,5-tetrahydro-1H-pyrido[4,3-b]indole]
[1]
  inhibition at 0.1 µM: 88%
[2]
  inhibition at 0.1 µM: 36%
[3]
  inhibition at 0.1 µM: 37%
[4]
  inhibition at 0.1 µM: 95%

## Cc1ccc2c(c1)c1c(n2-c2ccccc2-c2c(C)noc2C)CCN(C)C1 [Compound No. 82, 4-(2-(2,8-dimethyl-3,4-dihydro-1H-pyrido[4,3-b]indol-5(2H)-yl)phenyl)-3,5-dimethylisoxazole]
[1]
  inhibition at 0.1 µM: 30%
[2]
  inhibition at 0.1 µM: 14%
[3]
  inhibition at 0.1 µM: 14%
[4]
  inhibition at 0.1 µM: 21%
